In US4452778A, “Synergistic antibacterial compositions and method of treatment of infections caused by multiple antibiotic-resistant organisms” (Eli Lilly and Company, priority 1981, dated 1984):
Read-outs that look alike come from different tables or passages of the source.

Columns and labels:
Proteus rettgeri = assay: Checkerboard broth dilution synergy study (mic); assay type: cell-based; details: Providencia rettgeri, Table II, strain 65; read-out: mic, drug alone
[1] = cited from earlier work; for mean serum concentration: end of injection
E. coli = assay: Checkerboard broth dilution synergy study (mic); assay type: cell-based; details: Table II; for MIC: Escherichia coli, read-out: mic, drug alone
Proteus vulgaris = assay: Checkerboard broth dilution synergy study (mic); assay type: cell-based; details: Proteus vulgaris, Table II, read-out: mic, drug alone
Klebsiella pneumoniae = assay: Checkerboard broth dilution synergy study (mic); assay type: cell-based; details: Table II; for MIC: Klebsiella pneumoniae, read-out: mic, drug alone
Serratia marcescens = assay: Checkerboard broth dilution synergy study (mic); assay type: cell-based; details: Table II; for MIC: Serratia marcescens, read-out: mic, drug alone
Pseudomonas aeruginosa = assay: Checkerboard broth dilution synergy study (mic); assay type: cell-based; details: Table II; for MIC: Pseudomonas aeruginosa, read-out: mic, drug alone
Proteus mirabilis = assay: Checkerboard broth dilution synergy study (mic); assay type: cell-based; details: Proteus mirabilis; Table II, strain Allen; read-out: mic, drug alone
E. cloacae = assay: Checkerboard broth dilution synergy study (mic); assay type: cell-based; details: Table II; for MIC: Enterobacter cloacae, read-out: mic, drug alone

Compound: CCN1CCN(C(=O)N[C@@H](C(=O)N[C@@H]2C(=O)N3[C@@H]2SC(C)(C)[C@@H]3C(=O)O)c2ccccc2)C(=O)C1=O [piperacillin, sodium 6-(D(-)-α-(4-ethyl-2,3-dioxo-1-piperazinylcarbonylamino)-α-phenylacetamido]penicillinate]
- MIC (Proteus rettgeri): 64 µg/mL
- mean peak serum concentration ([1]; single intramuscular dose 0.5 g): 4.9 µg/mL
- mean peak serum concentration ([1]; single intramuscular dose 1.0 g): 13.3 µg/mL
- mean peak serum concentration ([1]; single intramuscular dose 2.0 g): 30.2 µg/mL
- mean serum concentration ([1]; single intravenous bolus 1.0 g): 70.7 µg/mL
- mean serum concentration ([1]; single intravenous bolus 2.0 g): 199.5 µg/mL
- mean serum concentration ([1]; single intravenous bolus 4.0 g): 330.7 µg/mL
- mean serum concentration ([1]; single intravenous bolus 6.0 g): 451.8 µg/mL
- MIC (E. coli; strain 46-2): > 64 µg/mL
- MIC (E. coli; strain 77-3): > 64 µg/mL
- MIC (E. coli; strain 136-3): > 64 µg/mL
- MIC (E. coli; strain 1260): > 64 µg/mL
- MIC (E. coli; strain 1262): > 64 µg/mL
- MIC (E. coli; strain Briley): > 64 µg/mL
- MIC (E. coli; strain Dill): 32 µg/mL
- mic of each drug in combination I + P (E. coli; strain 46-2): 2 µg/mL
- mic of each drug in combination I + P (E. coli; strain 1253): 4 µg/mL
- mic of each drug in combination I + P (E. coli; strain 1262): 64 µg/mL
- mic of each drug in combination I + P (E. coli; strain 1415): 2 µg/mL
- mic of each drug in combination I + P (E. coli; strain Briley): 32 µg/mL
- MIC (Proteus vulgaris; strain 363): > 64 µg/mL
- MIC (Proteus vulgaris; strain Shide): > 64 µg/mL
- MIC (Klebsiella pneumoniae; strain 130): > 64 µg/mL
- MIC (Klebsiella pneumoniae; strain 214-1): > 64 µg/mL
- MIC (Klebsiella pneumoniae; strain 463): > 64 µg/mL
- MIC (Klebsiella pneumoniae; strain 512): > 64 µg/mL
- MIC (Klebsiella pneumoniae; strain 933): > 64 µg/mL
- MIC (Klebsiella pneumoniae; strain 1204-2): > 64 µg/mL
- mic of each drug in combination I + P (Klebsiella pneumoniae; strain 214-1): 8 µg/mL
- mic of each drug in combination I + P (Klebsiella pneumoniae; strain 463): 16 µg/mL
- mic of each drug in combination I + P (Klebsiella pneumoniae; strain 512): 32 µg/mL
- mic of each drug in combination I + P (Klebsiella pneumoniae; strain 1204-2): 2 µg/mL
- MIC (Serratia marcescens; strain 100): > 64 µg/mL
- MIC (Serratia marcescens; strain 302-2): > 64 µg/mL
- MIC (Serratia marcescens; strain 796): > 64 µg/mL
- MIC (Serratia marcescens; strain 14142): > 64 µg/mL
- MIC (Serratia marcescens; strain Townsend): > 64 µg/mL
- mic of each drug in combination I + P (Serratia marcescens; strain 100): 32 µg/mL
- mic of each drug in combination I + P (Serratia marcescens; strain 302-2): 8 µg/mL
- mic of each drug in combination I + P (Serratia marcescens; strain 796): 4 µg/mL
- mic of each drug in combination I + P (Serratia marcescens; strain 14142): 8 µg/mL
- mic of each drug in combination I + P (Serratia marcescens; strain Townsend): 64 µg/mL
- MIC (Pseudomonas aeruginosa; strain 84): 64 µg/mL
- MIC (Pseudomonas aeruginosa; strain 366): > 128 µg/mL
- MIC (Pseudomonas aeruginosa; strain 424): > 128 µg/mL
- MIC (Pseudomonas aeruginosa; strain 447): > 128 µg/mL
- MIC (Pseudomonas aeruginosa; strain 1484): 64 µg/mL
- MIC (Pseudomonas aeruginosa; strain Davis): > 64 µg/mL
- mic of each drug in combination I + P (Pseudomonas aeruginosa; strain 84): 4 µg/mL
- mic of each drug in combination I + P (Pseudomonas aeruginosa; strain 366): 16 µg/mL
- mic of each drug in combination I + P (Pseudomonas aeruginosa; strain 424): 0.5 µg/mL
- mic of each drug in combination I + P (Pseudomonas aeruginosa; strain 447): 0.5 µg/mL
- mic of each drug in combination I + P (Pseudomonas aeruginosa; strain 1484): 8 µg/mL
- mic of each drug in combination I + P (Pseudomonas aeruginosa; strain Davis): 16 µg/mL
- MIC (Proteus mirabilis): > 64 µg/mL
- MIC (E. cloacae; strain 1246): > 64 µg/mL
- MIC (E. cloacae; strain 1253): > 64 µg/mL
- MIC (E. cloacae; strain 1415): > 64 µg/mL
- MIC (E. cloacae; strain B293): > 64 µg/mL
- mic of each drug in combination I + P (E. cloacae; strain 1253): 32 µg/mL
- mic of each drug in combination I + P (E. cloacae; strain B293): 16 µg/mL
